# Data published in patent US20150274787A1, “METHOD FOR RECOMBINANT PRODUCTION OF LABYRINTHOPEPTINS AND FUNCTIONAL DERIVATIVES THEREOF” (priority 2011, published 2015).
# *1 amine or outer side, *2 acyl side, *3 side chain or, on linkers, in order; H or OH if unused. Where a SMILES comes first, the peptide text is derived from it. Bridges are numbered along the chain shown (N, C = ends). Where no end group is shown, it is not given here. [ ]: non-standard residue; d: D form. The star is where a group is joined. X1 = NC1=N[C@@H]([C@H](N[*:1])C(=O)[*:2])C[C@H](O)N1; ΔAla(Z-3-ureido) = NC(=O)N/C=C(\N)C(=O)O; β3hOrn = NCCC[C@H](N)CC(=O)*; Dap = NC[C@H](N)C(=O)O
# T1: human P2X4 receptor (Homo sapiens, UniProt Q99571)
# T1 construct: expressed in transfected cells; host or cells: HEK cells (hP2X4_HEK-FITR), expression induced with doxycyclin
# T1 sequence (Q99571 1-388): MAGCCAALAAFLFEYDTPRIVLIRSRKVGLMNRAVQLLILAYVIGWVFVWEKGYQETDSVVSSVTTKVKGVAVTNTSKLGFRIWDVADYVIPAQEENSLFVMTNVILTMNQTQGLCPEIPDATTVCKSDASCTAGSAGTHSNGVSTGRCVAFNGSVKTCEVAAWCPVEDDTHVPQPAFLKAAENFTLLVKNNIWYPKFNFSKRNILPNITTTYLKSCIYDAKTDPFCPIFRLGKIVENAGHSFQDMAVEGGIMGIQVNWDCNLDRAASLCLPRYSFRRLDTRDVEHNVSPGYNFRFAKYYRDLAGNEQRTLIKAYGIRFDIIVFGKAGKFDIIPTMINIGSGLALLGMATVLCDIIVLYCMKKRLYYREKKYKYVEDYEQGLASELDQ
# T2: Recombinant human P2X4 receptor (human, UniProt Q99571 1-388)
# T2 sequence (looked up): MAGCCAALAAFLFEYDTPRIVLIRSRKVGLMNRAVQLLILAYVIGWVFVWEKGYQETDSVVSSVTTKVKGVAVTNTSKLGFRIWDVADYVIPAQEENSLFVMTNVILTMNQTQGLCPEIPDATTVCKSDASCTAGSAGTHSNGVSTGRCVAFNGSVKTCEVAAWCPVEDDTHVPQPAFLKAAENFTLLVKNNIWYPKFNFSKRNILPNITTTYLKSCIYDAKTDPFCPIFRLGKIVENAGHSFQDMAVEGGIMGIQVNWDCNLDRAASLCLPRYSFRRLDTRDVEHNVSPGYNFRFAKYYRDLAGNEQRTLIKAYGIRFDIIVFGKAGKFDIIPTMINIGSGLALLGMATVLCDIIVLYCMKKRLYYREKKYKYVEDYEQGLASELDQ
# Columns and labels:
# A. namibiensis = assay: Testing selection markers (antibiotic resistance) suitable for genetic manipulations of A. namibiensis; as to Growth after 4 days: key: −: no growth; +: slight growth; ++: medium growth; +++: strong growth; as to Growth after 7 days: key: −: no growth; +: slight growth; ++: medium growth; +++: strong growth; type: cell-based, Actinomadura namibiensis; conditions: for Growth after 4 days / Growth after 7 days: A. namibiensis
# Method: An apramycin resistance gene was used as selectable marker for vectors used in this study because from all eight tested antibiotics A. namibiensis was […] to apramycin (50 μg/ml). Initially for establishing a way in which DNA can be introduced into A. namibiensis the typical cloning vectors for Streptomyces strains were used. Plasmid pUWLoriT which can replicate autonomously in Streptomyces and plasmid pSET152 which can integrate site-specifically at the bacteriophage ΦC31 attachment site (18) (7) were used. […] Although Actinomaduras and Streptomyces are related it is still possible that origin of replication (ori) for Streptomyces is not recognized by A. namibiensis (9). Description of similar difficulties can be found in the literature (17). This led to the use of vectors harboring replicons of Actinomadura strains: pSETermEΔHindIII_oriCLL4, pK18mobXylE_oripCLL4 and pCLL4_ori_apra. Also a non-replicating plasmid pK18mob2 with a fragment coding for the LabKC modifying enzyme was used for transformation of A. namibiensis.
# human P2X4 receptor = molecular target: T1, human P2X4 receptor; assay: IC50 determination by patch clamp on hP2X4_HEK-FITR cell line (in vitro anti-pain assay); type: cell-based; conditions: recombinant human P2X4 in HEK cells, 10 μM ATP, holding potential −60 mV, 0.3 to 90 μM
# Excerpt: Evaluation of anti-pain activity of labyrinthopeptin A2 and its structural analogs LabA2_L14A and LabA2 F15A in an in vitro assay (IC50 determination of LabA2, LabA2_L14A and LabA2_F15A on hP2X4_HEK-FITR-cell line) The use of labyrinthopeptin A2 and its derivatives, in particular LabA2_L14A and LabA2_F15A, as analgesics was investigated for neuropathic pain based on their inhibitory effects on P2X4 receptors (Nagata K et al., 2009).
# Recombinant human P2X4 receptor was expressed in HEK cells (hP2X4_HEK-FITR). hP2X4 expression was induced with doxycyclin 1 μg/ml for 24 h to 48 h. The patch clamp experiment has been performed under standard conditions using an axopatch-200B amplifier and pClamp v10 acquisition software (Axon Instruments Inc, Foster City, Calif., USA). Cells were continuously superfused with an external solution consisting of (in mM) 130 CsCl, 4 NaCl, 1 MgCl2, 1 CaCl2, 10 EGTA (free Ca^2+=6.7 nM) and 10 HEPES (pH 7.4 with CsOH). This was replaced with a […] external solution consisting of (in mM) 145 NaCl, 4 KCl, 2 CaCl2, 1 MgCl2 and 10 HEPES (pH 7.4 with NaOH). 250 ms application of 10 μM ATP (Sigma) every 10 sec was performed. […] Currents were measured at a holding potential of −60 mV.
# Results were calculated using Origin7.5 software (FIG. 27).
# [1] = molecular target: T2, Recombinant human P2X4 receptor; assay: cell-based or functional assay
molecule,measurement,setting,value
CN[C@@H]1[C@@H](O[C@H]2O[C@H](CO)[C@@H](N)[C@H](O)[C@H]2O)OC2C[C@@H](N)[C@@H](O[C@H]3[C@H](O)[C@@H](O)[C@H](N)C[C@@H]3N)OC2[C@@H]1O (stereo partly shown) [Apramycin],sensitivity of A. namibiensis to antibiotic,A. namibiensis; 50 μg/ml,sensitive
same,Growth after 4 days,A. namibiensis; antibiotic conc. 25 μg/ml,−
same,Growth after 7 days,A. namibiensis; antibiotic conc. 25 μg/ml,+
same,Growth after 4 days,A. namibiensis; antibiotic conc. 50 μg/ml,−
same,Growth after 7 days,A. namibiensis; antibiotic conc. 50 μg/ml,−
NC[C@H]1O[C@H](O[C@H]2[C@H](O)[C@@H](O[C@H]3O[C@H](CO)[C@@H](O)[C@H](N)[C@H]3O)[C@H](N)C[C@@H]2N)[C@H](O)[C@@H](O)[C@@H]1O [Kanamycin],Growth after 4 days,A. namibiensis; antibiotic conc. 50 μg/ml,+++
same,Growth after 7 days,A. namibiensis; antibiotic conc. 50 μg/ml,+++
C[C@@H]1O[C@@H]1P(=O)(O)O [Phosphomycin],Growth after 4 days,A. namibiensis; antibiotic conc. 400 μg/ml,+++
same,Growth after 7 days,A. namibiensis; antibiotic conc. 400 μg/ml,+++
CN[C@@H]1[C@H](O)[C@H](NC)[C@H]2O[C@@]3(O)C(=O)C[C@@H](C)O[C@H]3O[C@@H]2[C@H]1O [Spectinomycin],Growth after 4 days,A. namibiensis; antibiotic conc. 100 μg/ml,+++
same,Growth after 7 days,A. namibiensis; antibiotic conc. 100 μg/ml,+++
[H]/N=C(/N)N[C@H]1[C@H](O)[C@@H](O)[C@H](O[C@@H]2O[C@@H](C)[C@](O)(C=O)[C@H]2O[C@@H]2O[C@@H](CO)[C@H](O)[C@@H](O)[C@@H]2NC)[C@@H](N/C(N)=N\[H])[C@@H]1O [Streptomycin],Growth after 4 days,A. namibiensis; antibiotic conc. 30 μg/ml,+
same,Growth after 7 days,A. namibiensis; antibiotic conc. 30 μg/ml,++
C=C(NC(=O)C(=C)NC(=O)c1csc(C2=N[C@@H]3c4csc(n4)[C@H]4NC(=O)c5csc(n5)[C@H]([C@](C)(O)[C@@H](C)O)NC(=O)[C@H]5CSC(=N5)/C(=C/C)NC(=O)[C@H]([C@@H](C)O)NC(=O)c5csc(n5)[C@]3(CC2)NC(=O)[C@H](C)NC(=O)C(=C)NC(=O)[C@H](C)NC(=O)[C@H]([C@@H](C)CC)N[C@@H]2C=Cc3c([C@H](C)O)cc(nc3[C@H]2O)C(=O)O[C@@H]4C)n1)C(N)=O [Thiostrepton],Growth after 4 days,A. namibiensis; antibiotic conc. 25 μg/ml,−
same,Growth after 7 days,A. namibiensis; antibiotic conc. 25 μg/ml,+
same,sensitivity of A. namibiensis to antibiotic,A. namibiensis; concentration not given,not sensitive
NCCC[C@H](N)CC(=O)N[C@H]1CNC(=O)[C@H]([C@H]2C[C@H](O)NC(N)=N2)NC(=O)/C(=C/NC(N)=O)NC(=O)[C@H](CO)NC(=O)[C@H](CO)NC1=O [Viomycin] (β3hOrn-[Dap]SS[ΔAla(Z-3-ureido)][X1]; lactam 1-C),Growth after 4 days,A. namibiensis; antibiotic conc. 30 μg/ml,+
same,Growth after 7 days,A. namibiensis; antibiotic conc. 30 μg/ml,+
Hydromycin,Growth after 4 days,A. namibiensis; antibiotic conc. 50 μg/ml,++
same,Growth after 7 days,A. namibiensis; antibiotic conc. 50 μg/ml,+++
LabA2_F15A (SDWSLWECCSTGSLAACC),IC50 (concentration of a substance that blocks 50% of channels),human P2X4 receptor,could not be determined
"SDWSLWECCSTGSAFACC (thioether (positions not given here); not fully specified (residues 1, 4, 10, 13, bridges); also: labionin residues as in LabA2: methylene bridges between alpha-C atoms, places not given here) [LabA2_L14A]","IC50 of inhibition of ATP-evoked currents (patch clamp, hP2X4_HEK-FITR cells)",[1],30 µM
